Where “and” joins values, the source holds several entries; their conditions need not be identical. Identical values can stand only once. Entries after “also recorded” stand apart in the source; their conditions may differ.
Experiments:
influenza vaccine = conditions: observed previously; cited from earlier work
[1] = test system: SARS-CoV-2 anti-spike-protein (spike) antibody; experiment: SARS-CoV-2 anti-spike IgG ELISA before and after COVID-19 vaccination in RMS patients on ponesimod (study AC-058B202); type: in vivo, human
Procedure: (§1) Participants in this study receiving 20 mg ponesimod who reported COVID-19 vaccination were analyzed. Blood samples collected before and at least 3 weeks after COVID-19 vaccination were tested for SARS-CoV-2 anti-spike-protein (spike) antibody concentrations (Human SARS-CoV-2 PreSpike IgG ELISA, Nexelis). Response to vaccination was defined as seroconversion in case of negative pre-vaccination antibody testing, or a 4-fold antibody concentration increase in case of positive pre-vaccination antibody result. COVID-19 infection adverse events (AEs) were evaluated in this study sub-population.
Of the 134 participants, 49 participants had both pre- and post-vaccination blood samples tested for anti-spike antibody concentrations. Out of these 49 participants, 40 (81.6%) met the pre-specified definition of response to COVID-19 vaccination. […] Response was defined as pre-vaccination titer≤lower limit of quantification (LLOQ) and post-vaccination titer >LLOQ; or pre-vaccination titer >LLOQ (i.e., seroconversion in case of negative pre-vaccination antibody testing) and post-vaccination titer >4× increase (i.e., a 4-fold antibody concentration increase in case of positive pre-vaccination antibody result).
Patients in the Phase 2 extension study AC-058B202 receiving ponesimod 20 mg who reported COVID-19 vaccination were included in this analysis. Blood samples collected before and at least 3 weeks after vaccination were evaluated with Human SARS-CoV-2 PreSpike IgG (spike antibody) enzyme-linked immunoassay (Nexelis). A responder to vaccination was defined as seroconversion in case of negative pre-vaccination antibody testing, or a 4-fold antibody concentration increase in case of positive pre-vaccination antibody result. Responder analysis was performed by vaccine type, and by pre-vaccination lymphocyte count.

[2] = COVID-19 infection adverse events in vaccinated RMS patients on ponesimod (study AC-058B202); type: in vivo, human
Procedure: as §1

influenza A/PR/8/34 = experiment: Neutralizing antibody response to inactivated influenza A/PR/8/34 immunization in mice on ponesimod chow; type: in vivo, female BALB/c mice
Excerpt: The neutralizing antibody response to a single intramuscular injection of purified and inactivated influenza A/PR/8/34 was compared in female BALB/c mice that were maintained on different oral ponesimod regimens (Group 1: standard chow; Group 2: continuous specialty chow with ponesimod at 1000 ppm; Group 3: specialty chow with a 4-day discontinuation around immunization).
Mean percentage inhibition of viral infection by A/PR/8/34 with serum samples, ±SEM.
Table 5 presents data regarding dilution from neat serum that results in 50% inhibition of viral infection (ID50).

[3] = inactivated virus vaccines, post-vaccination
[4] = inactivated virus vaccines, pre-vaccination
[5] = mRNA vaccines, post-vaccination
[6] = mixed vaccines, post-vaccination
[7] = mixed vaccines, pre-vaccination
[8] = subjects pre-vaccination negative
[9] = subjects pre-vaccination positive
[10] = unspecified vaccines, post-vaccination
[11] = unspecified vaccines, pre-vaccination
[12] = viral vector vaccines, post-vaccination

SMILES: CCc1cc(/C(C)=N/OCc2ccc(C3CCCCC3)c(C(F)(F)F)c2)ccc1CN1CC(C(=O)O)C1 [siponimod]
- Vaccination response to the influenza vaccine (influenza vaccine): reduced vaccination response

SMILES: CCC/N=C1\S/C(=C\c2ccc(OC[C@H](O)CO)c(Cl)c2)C(=O)N1c1ccccc1C [ponesimod, (R)-5-[3-chloro-4-(2,3-dihydroxy-propoxy)-benz[Z]ylidene]-2-([Z]-propylimino)-3-o-tolyl-thiazolidin-4-one]
- Fold increase from baseline of S binding antibody, geometric mean (95% CI) ([1]; all vaccines, 1st vaccine regimen, ponesimod 20 mg): 12.90 (7.64; 21.78)
- Responders (n/N) (%) (95% CI) ([1]; all vaccines, seroconversion or >4-fold increase): 40 (81.6%) n/N (%)
- Fold increase from baseline, geometric mean (95% CI) ([1]; inactivated virus vaccines): 1.29 (0.50; 3.32)
- Responders (n/N) (%) (95% CI) ([1]; inactivated virus vaccines): 2 (33.3%) n/N (%)
- Positive sample n (%) (95% CI) [1, 3]: 6 (66.7%) (29.93; 92.51) n (%)
- S binding antibody concentration, geometric mean (95% CI) [1, 3]: 84.22 (<LLOQ; 189.22) EU/mL
- Positive sample n (%) (95% CI) [1, 4]: 3 (50.0%) (11.81; 88.19) n (%)
- S binding antibody concentration, geometric mean (95% CI) [1, 4]: 65.88 (<LLOQ; 203.92) EU/mL
- Patients meeting antibody concentration responder criteria ([1]; mRNA COVID-19 vaccines and/or pre-vaccination lymphocyte counts ≥500 cells/mm^3): > 90%
- Fold increase from baseline, geometric mean (95% CI) ([1]; mRNA vaccines): 20.68 (11.35; 37.68)
- Responders (n/N) (%) (95% CI) ([1]; mRNA vaccines): 29 (90.6%) n/N (%)
- Positive sample n (%) (95% CI) [1, 5]: 62 (88.6%) (78.72; 94.93) n (%)
- S binding antibody concentration, geometric mean (95% CI) [1, 5]: 833.22 (513.88; 1351.00) EU/mL
- Positive sample n (%) (95% CI) ([1]; mRNA vaccines, pre-vaccination): 5 (15.6%) (5.28; 32.79) n (%)
- Responders n (%) ([1]; mixed or unspecified vaccine types, 4 participants): 4 (100%) n (%)
- Fold increase from baseline, geometric mean ([1]; mixed vaccines): 11.49
- Positive sample n (%) [1, 6]: 5 (100.0%) n (%)
- S binding antibody concentration, geometric mean [1, 6]: 1525.40 EU/mL
- Positive sample n (%) [1, 7]: 1 (33.3%) n (%)
- S binding antibody concentration, geometric mean [1, 7]: <LLOQ
- SARS-CoV-2 S binding antibody concentration, geometric mean (95% CI) ([1]; post-vaccination, all vaccines, 1st vaccine regimen, ponesimod 20 mg): 621.25 (414.96; 930.08) EU/mL
- Positive sample n (%) (95% CI) ([1]; post-vaccination, all vaccines, positive = value > LLOQ): 89 (86.4%)(78.25; 92.37) n (%)
- Responders n (%) ([1]; pre-vaccination lymphocyte count <500 cells/mm^3, 16 participants): 9 (56.3%) n (%)
- Responders n (%) ([1]; pre-vaccination lymphocyte count ≥500 cells/mm^3, 32 participants): 30 (93.8%) n (%)
- Positive sample n (%) (95% CI) ([1]; pre-vaccination, all vaccines, positive = value > LLOQ): 11 (22.4%) (11.77; 36.62) n (%)
- Post-vaccination Negative N (%) [1, 8]: 5 (13.2%) N (%)
- Post-vaccination Responder N (%) [1, 8]: 33 (86.8%) N (%)
- Post-vaccination Positive N (%) ([1]; subjects pre-vaccination negative (seroconversion)): 33 (86.8%) N (%)
- Post-vaccination Negative N (%) [1, 9]: 0 N (%)
- Post-vaccination Positive N (%) [1, 9]: 11 (100.0%) N (%)
- Post-vaccination Responder N (%) [1, 9]: 7 (63.6%) N (%)
- Fold increase from baseline, geometric mean ([1]; unspecified vaccines): 182.01
- Positive sample n (%) [1, 10]: 2 (100.0%) n (%)
- S binding antibody concentration, geometric mean [1, 10]: 944.31 EU/mL
- Positive sample n (%) [1, 11]: 0 n (%)
- S binding antibody concentration, geometric mean [1, 11]: <LLOQ
- Fold increase from baseline, geometric mean (95% CI) ([1]; viral vector vaccines): 7.76 (2.22; 27.11)
- Responders (n/N) (%) (95% CI) ([1]; viral vector vaccines): 5 (71.4%) n/N (%)
- Positive sample n (%) (95% CI) [1, 12]: 14 (82.4%) (56.57; 96.2) n (%)
- S binding antibody concentration, geometric mean (95% CI) [1, 12]: 390.49 (140.01; 1089.07) EU/mL
- Positive sample n (%) (95% CI) ([1]; viral vector vaccines, pre-vaccination): 2 (28.6%) (3.67; 70.96) n (%)
- COVID-19 infection AEs leading to death, n (%) ([2]; >=14 D Post Vx): 0 n (%)
- COVID-19 infection AEs leading to treatment discontinuation, n (%) ([2]; >=14 D Post Vx): 0 n (%)
- COVID-19 infection AEs leading to treatment interruption, n (%) ([2]; >=14 D Post Vx): 4 (3.0%) n (%)
- COVID-19 infection AEs, severity Mild, n (%) ([2]; >=14 D Post Vx): 13 (9.7%) n (%)
- COVID-19 infection AEs, severity Moderate, n (%) ([2]; >=14 D Post Vx): 4 (3.0%) n (%)
- COVID-19 infection AEs, severity Severe, n (%) ([2]; >=14 D Post Vx): 0 n (%)
- Serious COVID-19 infection AEs, n (%) ([2]; >=14 D Post Vx): 0 n (%)
- Subjects with COVID-19 infection AEs, n (%) ([2]; >=14 D Post Vx): 17 (12.7%) n (%)
- COVID-19 infection AEs leading to death, n (%) ([2]; >=28 D Post Vx): 0 n (%)
- COVID-19 infection AEs leading to treatment discontinuation, n (%) ([2]; >=28 D Post Vx): 0 n (%)
- COVID-19 infection AEs leading to treatment interruption, n (%) ([2]; >=28 D Post Vx): 4 (3.0%) n (%)
- COVID-19 infection AEs, severity Mild, n (%) ([2]; >=28 D Post Vx): 13 (9.7%) n (%)
- COVID-19 infection AEs, severity Moderate, n (%) ([2]; >=28 D Post Vx): 4 (3.0%) n (%)
- COVID-19 infection AEs, severity Severe, n (%) ([2]; >=28 D Post Vx): 0 n (%)
- Serious COVID-19 infection AEs, n (%) ([2]; >=28 D Post Vx): 0 n (%)
- Subjects with COVID-19 infection AEs, n (%) ([2]; >=28 D Post Vx): 17 (12.7%) n (%)
- COVID-19 infection AEs leading to death, n (%) ([2]; Post-Vx): 0 n (%)
- COVID-19 infection AEs leading to treatment discontinuation, n (%) ([2]; Post-Vx): 0 n (%)
- COVID-19 infection AEs leading to treatment interruption, n (%) ([2]; Post-Vx): 4 (3.0%) n (%)
- COVID-19 infection AEs, severity Mild, n (%) ([2]; Post-Vx): 13 (9.7%) n (%)
- COVID-19 infection AEs, severity Moderate, n (%) ([2]; Post-Vx): 4 (3.0%) n (%)
- COVID-19 infection AEs, severity Severe, n (%) ([2]; Post-Vx): 0 n (%)
- Serious COVID-19 infection AEs, n (%) ([2]; Post-Vx): 0 n (%)
- Subjects with COVID-19 infection AEs, n (%) ([2]; Post-Vx): 17 n (%) and 17 (12.7%) n (%)
- COVID-19 infection AEs leading to death, n (%) ([2]; Pre-Vx): 0 n (%)
- COVID-19 infection AEs leading to treatment discontinuation, n (%) ([2]; Pre-Vx): 0 n (%)
- COVID-19 infection AEs leading to treatment interruption, n (%) ([2]; Pre-Vx): 5 (3.7%) n (%)
- COVID-19 infection AEs, severity Mild, n (%) ([2]; Pre-Vx): 18 (13.4%) n (%)
- COVID-19 infection AEs, severity Moderate, n (%) ([2]; Pre-Vx): 2 (1.5%) n (%)
- COVID-19 infection AEs, severity Severe, n (%) ([2]; Pre-Vx): 0 n (%)
- Serious COVID-19 infection AEs, n (%) ([2]; Pre-Vx): 0 n (%)
- Subjects with COVID-19 infection AEs, n (%) ([2]; Pre-Vx): 20 n (%) and 20 (14.9%) n (%)
- COVID-19 infection AEs leading to treatment interruption, n (%) ([2]; Total): 7 (5.2%) n (%)
- COVID-19 infection AEs, severity Mild, n (%) ([2]; Total): 28 (20.9%) n (%)
- COVID-19 infection AEs, severity Moderate, n (%) ([2]; Total): 6 (4.5%) n (%)
- Subjects with COVID-19 infection AEs, n (%) ([2]; Total): 33 (24.6%) n (%)
- Inhibition titer: dilution from neat serum that results in 50% inhibition of viral infection (ID50) (influenza A/PR/8/34; Concomitant (Group 2), Day 35): 0.004
- Inhibition titer: dilution from neat serum that results in 50% inhibition of viral infection (ID50) (influenza A/PR/8/34; Concomitant (Group 2), Day 63): 0.003
- Inhibition titer: dilution from neat serum that results in 50% inhibition of viral infection (ID50) (influenza A/PR/8/34; Concomitant (Group 2), Day 91): 0.004
- Inhibition titer: dilution from neat serum that results in 50% inhibition of viral infection (ID50) (influenza A/PR/8/34; Concomitant (Group 2, continuous ponesimod chow 1000 ppm), Day −1): 0.050
- Inhibition titer: dilution from neat serum that results in 50% inhibition of viral infection (ID50) (influenza A/PR/8/34; Discontinued (Group 3), Day 35): 0.001
- Inhibition titer: dilution from neat serum that results in 50% inhibition of viral infection (ID50) (influenza A/PR/8/34; Discontinued (Group 3), Day 63): 0.002
- Inhibition titer: dilution from neat serum that results in 50% inhibition of viral infection (ID50) (influenza A/PR/8/34; Discontinued (Group 3), Day 91): 0.003
- Inhibition titer: dilution from neat serum that results in 50% inhibition of viral infection (ID50) (influenza A/PR/8/34; Discontinued (Group 3, 4-day discontinuation around immunization), Day −1): 0.001
- Vaccine (antibody) response compared to control mice (influenza A/PR/8/34; Group 2, continuously on ponesimod chow, inactivated H1N1 influenza vaccine): attenuated vaccine response; also recorded: blunted, but not absent
- Plasma drug levels after wash-out (Group 3, after a 2-day wash-out period): cleared from plasma
- Plasma drug levels (Groups 2 and 3, by Day 5, ponesimod chow 1000 ppm): sufficiently high to reduce lymphocyte counts
